Laboratory results taken from patent publication US20160242416A1, “FUNGICIDAL ISOXAZOLINE CARBINOLS” (E I DU PONT DE NEMOURS AND COMPANY, priority 2015, published 2016).

Assays:
Settings in all cases: 10 ppm test solution; 100 = 100% disease control, 0 = no control relative to controls
[1] = system: Zymoseptoria tritici; experiment: Test E: wheat leaf blotch, preventive spray on wheat seedlings
From the text: (§1) General protocol for preparing test solutions for Tests A-G: the test compounds were first dissolved in acetone in an amount equal to 3% of the final volume and then suspended at the desired concentration (in ppm) in acetone and purified water (50/50 mix by volume) containing 250 ppm of the surfactant PEG400 (polyhydric alcohol esters). The resulting test suspensions were then used in Tests A-G. Compounds were sprayed at a concentration of 50 ppm (*) or 10 ppm to the point of run-off on the test plants, the equivalent of a rate of 200 g/ha or 40 g/ha, respectively.
The test solution was sprayed to the point of run-off on wheat seedlings. The following day the seedlings were inoculated with a spore suspension of Zymoseptoria tritici (the causal agent of wheat leaf blotch) and incubated in a saturated atmosphere at 24° C. for 48 h, and then moved to a growth chamber at 20° C. for 17 days, after which time visual disease ratings were made.
Compounds with an asterisks (*) were applied at a concentration of 50 ppm, otherwise test solutions were applied at 10 ppm.

[2] = system: Stagonospora nodorum; experiment: Test D: wheat glume blotch, preventive spray on wheat seedlings
[3] = system: Erysiphe graminis f sp. tritici; experiment: Test G: wheat powdery mildew, preventive spray on wheat seedlings
[4] = system: Puccinia recondita f sp. tritici; experiment: Test F: wheat leaf rust, preventive spray on wheat seedlings
From the text: as §1
The test solution was sprayed to the point of run-off on wheat seedlings. The following day the seedlings were inoculated with a spore suspension of Puccinia recondita f sp. tritici; (the causal agent of wheat leaf rust) and incubated in a saturated atmosphere at 20° C. for 24 h, and then moved to a growth chamber at 20° C. for 6 days, after which time visual disease ratings were made.
A dash (-) indicates no test results. Compounds with an asterisks (*) were applied at a concentration of 50 ppm, otherwise test solutions were applied at 10 ppm.

Row | SMILES | Test E disease control rating [1] [%] | Test D disease control rating [2] [%] | Test G disease control rating [3] [%] | Test F disease control rating [4] [%]
1 | CC1(C(O)(Cn2cncn2)C2=NOC(COc3ccc(C(F)(F)F)cc3)C2)CC1 (single isomer, unassigned) [Compound 236] | 16 | 99 | 100 | 100
2 | CC1(C(O)(Cn2cncn2)C2=NOC(COc3ccc(C(F)(F)F)cc3)C2)CC1 (single isomer, unassigned) [Compound 237] | 0 | 89 | 98 | 100
3 | CC1(C(O)(Cn2cncn2)C2=NOC(COc3ccc(Br)cc3)C2)CC1 (single isomer, unassigned) [Compound 238] | 0 | 99 | 99 | 100
4 | CC1(C(O)(Cn2cncn2)C2=NOC(COc3ccc(Br)cc3)C2)CC1 (single isomer, unassigned) [Compound 239] | 0 | 98 | 99 | 100
5 | CC(C)(C)C(O)(Cn1cncn1)C1=NOC(COc2ccc(Cl)cc2)C1 (single isomer, unassigned) [Compound 242] | 0 | 0 | 68 | 99
6 | CC(C)(C)C(O)(Cn1cncn1)C1=NOC(COc2ccc(Cl)cc2)C1 (single isomer, unassigned) [Compound 243] | 0 | 0 | 0 | 99
7 | CC(C)(C)CC(O)(Cn1cncn1)C1=NOC(COc2ccc(F)cc2)C1 (single isomer, unassigned) [Compound 244] | 0 | 99 | 99 | 100
8 | CC(C)(C)CC(O)(Cn1cncn1)C1=NOC(COc2ccc(F)cc2)C1 (single isomer, unassigned) [Compound 245] | 2 | 51 | 98 | 98
9 | CCC(C)(C)C(O)(Cn1cncn1)C1=NOC(COc2ccc(F)cc2)C1 (single isomer, unassigned) [Compound 249] | 0 | 100 | 100 | 100
10 | CCC(C)(C)C(O)(Cn1cncn1)C1=NOC(COc2ccc(F)cc2)C1 (single isomer, unassigned) [Compound 250] | 0 | 64 | 99 | 99
11 | OC(Cn1cncn1)(C1=NOC(COc2ccc(Cl)cc2)C1)C1(Cl)CC1 (single isomer, unassigned) [Compound 251] | 3 | 100 | 100 | 100
12 | OC(Cn1cncn1)(C1=NOC(COc2ccc(Cl)cc2)C1)C1(Cl)CC1 (single isomer, unassigned) [Compound 252] | 2 | 78 | 89 | 100
13 | CC(C)(C)C(O)(Cn1cncn1)C1=NOC(COc2cccc(C(F)(F)F)c2)C1 (single isomer, unassigned) [Compound 253] | 3 | 99 | 100 | 100
14 | CC(C)(C)C(O)(Cn1cncn1)C1=NOC(COc2cccc(C(F)(F)F)c2)C1 (single isomer, unassigned) [Compound 254] | 0 | 99 | 99 | 100
15 | CC(C)(C)C(O)(Cn1cncn1)C1=NOC(COc2ccc(Cl)cc2Cl)C1 (single isomer, unassigned) [Compound 255] | 1 | 100 | 100 | 100
16 | CC(C)(C)C(O)(Cn1cncn1)C1=NOC(COc2ccc(Cl)cc2Cl)C1 (single isomer, unassigned) [Compound 256] | 0 | 97 | 99 | 100
17 | CC(C)(C)C(O)(Cn1cncn1)C1=NOC(COc2ccc(Cl)c(Cl)c2)C1 (single isomer, unassigned) [Compound 257] | 29 | 100 | 100 | 100
18 | CC(C)(C)C(O)(Cn1cncn1)C1=NOC(COc2ccc(Cl)c(Cl)c2)C1 (single isomer, unassigned) [Compound 258] | 0 | 100 | 100 | 100
19 | COc1ccc(OCC2CC(C(O)(Cn3cncn3)C(C)(C)C)=NO2)cc1 (single isomer, unassigned) [Compound 259] | 0 | 99 | 99 | 92
20 | COc1ccc(OCC2CC(C(O)(Cn3cncn3)C(C)(C)C)=NO2)cc1 (single isomer, unassigned) [Compound 260] | 1 | 99 | 100 | 98
21 | CCC(C)(C)C(O)(Cn1cncn1)C1=NOC(COc2ccc(C(F)(F)F)cc2)C1 (single isomer, unassigned) [Compound 261] | 92 | 100 | 100 | 100
22 | CCC(C)(C)C(O)(Cn1cncn1)C1=NOC(COc2ccc(C(F)(F)F)cc2)C1 (single isomer, unassigned) [Compound 262] | 41 | 0 | 98 | 99
23 | CC(C)(C)C(O)(Cn1cncn1)C1=NOC(COCc2ccc(Cl)cc2)C1 (single isomer, unassigned) [Compound 263] | 0 | 99 | 99 | 87
24 | CC(C)(C)C(O)(Cn1cncn1)C1=NOC(COCc2ccc(Cl)cc2)C1 (single isomer, unassigned) [Compound 264] | 0 | 0 | 99 | 0
25 | OC(Cn1cncn1)(C1=NOC(COc2ccc(Cl)cc2)C1)C1CCCCC1 (single isomer, unassigned) [Compound 265] | 1 | 99 | 100 | 100
26 | OC(Cn1cncn1)(C1=NOC(COc2ccc(Cl)cc2)C1)C1CCCCC1 (single isomer, unassigned) [Compound 266] | 0 | 100 | 100 | 100
27 | CC(C)CC(O)(Cn1cncn1)C1=NOC(COc2ccc(Cl)cc2)C1 (single isomer, unassigned) [Compound 267] | 3 | 100 | 100 | 100
28 | CC(C)CC(O)(Cn1cncn1)C1=NOC(COc2ccc(Cl)cc2)C1 (single isomer, unassigned) [Compound 268] | 0 | 82 | 95 | 100
29 | CC(C)(C)C(O)(Cn1cncn1)C1=NOC(CCOc2ccc(F)cc2)C1 (single isomer, unassigned) [Compound 269] | 73 | 99 | 100 | 100
